These results are taken from a melting point compilation (Tetko et al.; mined from patent text by program, amines drawn as free bases though some values may be those of a salt).

`CCOC(=O)C(Cc1ccc(F)cc1)C(=O)c1ccc(C(F)(F)F)cc1` (stereo unspecified) had a melting point of 52 to 53 °C.
`COCC(=O)Nc1nc(NC(=O)COC)c2[nH]cnc2n1` displayed a melting point of 219 to 220 °C.
For `Cc1cc(Oc2cc(C(F)(F)F)nn2C)nc(-c2ccsc2)n1`, the melting point is 122 °C.
Compound `Cc1c(-c2ccccc2)sc2c1c(=O)c(C(=O)O)cn2Cc1c(F)cccc1F` registered a melting point of 286 to 289 °C.
`CCOc1nc(NCCN2CCCC2)nc(Nc2ccc(F)c(Cl)c2)n1`: the melting point was in the range of 111 to 113 °C.
The result for `CC1Nc2ccc(-c3ccc(C#N)s3)cc2C(C)(C)O1` (stereo unspecified) reads 172 to 173 °C; that for `COc1ccc(CC(=O)N2CCn3c(c(C(N)=O)c(Cl)c3-c3ccccc3)C2)cc1`, 146 to 148 °C.
The result for `CCCCCCCCCCCCCCCCCCOCC(CO)Oc1nccs1` (stereo unspecified) reads 65 to 67 °C; that for `COc1ccc(-c2cc(N)n[nH]2)cc1OC`, 124 to 125 °C.
The figure for `CC(=O)OCC(=O)c1ccc(-c2ccccc2)cc1` is 109 to 110 °C; for `OCCCNc1ccc2ncnn2n1` it is 193 to 194 °C.
Take `COCOc1ccc(C(=O)OC)c(O)c1C`: the melting point fell in the range of 73.8 to 74 °C.
Compound `O=C(O)COc1nc(F)c(Cl)cc1Cl` registered a melting point of 140 to 144 °C.
Turning to `CC(Oc1ccccc1C(C)C)C(=O)OC1CC(O)C=C2C=CC(C)C(CCC3CC(O)CC(=O)O3)C21` (mixture of isomers), the melting point was in the range of 138 to 141 °C.
Compound `CC(C)n1c(=O)[nH]c2cc(-c3ncc(C(F)(F)F)cc3Cl)ccc21` displayed a melting point of 192 to 193 °C.
With `COc1ccc(OC)c(C(=O)c2cccc([N+](=O)[O-])c2)c1`, the melting point came to 98 °C.
Regarding `CN1CCN(S(=O)(=O)c2cccc(-c3cc(-c4nc(-c5ccc(C(F)(F)F)cc5)cc(C(F)(F)F)n4)ccn3)c2)CC1`, the melting point is 205 °C.
Compound `CC(=O)NC[C@H]1CN(c2ccc(N3CCC(O)(CN=[N+]=[N-])CC3)c(F)c2)C(=O)O1` returned a melting point of 146 to 149 °C.
For `Cc1cccc(-c2c[nH]nc2-c2ccnc(-c3ccc(OCCN4CCCC4)cc3)c2)n1`, the melting point came out at 96 °C.
`COc1ccc(CN(C)CCC2CN(C)C(=S)c3cccnc3O2)cc1` (stereo unspecified) displayed a melting point of 128 to 130 °C.
Regarding `O=C1CN=C(c2ccccc2Cl)c2ccsc2N1`, the melting point fell in the range of 221 to 223 °C.
Consider `CC(=O)Nc1ccccc1-c1ccc2c(c1)S(=O)(=O)NC(C1CCCCC1)N2` (stereo unspecified), for which the melting point lay in the range of 245 to 249 °C.
As to `CCOC(=O)CCCNC(=O)Cn1c(-c2ccc(Cl)cc2)nc2cccnc21`, the melting point was 169 to 171 °C.
The figure for `CC1CN(N=Cc2cccnc2)C(=O)NN1` (stereo unspecified) is 235 to 237 °C; for `COC(=O)C1=C(C)NC(CO)=C(C(=O)OC)C1c1ccccc1C#N` (stereo unspecified) it is 177 to 178 °C; for `COc1ccc(Oc2nccc(-c3c(-c4ccc(F)cc4)ncn3C3CCNCC3)n2)cc1` it is 190 to 191 °C.
In turn, `CCC1(C)C(=O)N=C(SCc2ccccc2N(C)C)N1C(C)=O` (stereo unspecified) gave a melting point of 83 to 85 °C.
For `CCC1CC(C)(C)Oc2c1cc(C(C)=O)c(O)c2C` (stereo unspecified), the melting point is 92 to 93 °C.
Compound `COC(=O)[C@@H]1CN(CCCCN2C(=O)c3cc(Cl)ccc3S2(=O)=O)CC[C@H]1n1c(=O)[nH]c2ccccc21` (relative stereo) showed a melting point of 170 to 176 °C.
The figure for `Oc1c(C(O)(C(F)(F)F)C(F)(F)F)cc(Br)c2ccccc12` is 112 to 115 °C; for `NCC1COc2cc(F)cc(-c3ccccc3F)c2N1` (stereo unspecified) it is 77 °C; for `O=[N+]([O-])O[C@H]1COc2c(O)cccc2C1` it is 129 to 130 °C.
Turning to `COc1sc(C)c(CO)c1C`, the melting point was in the range of 55 to 60 °C.
`O=C(F)N(SN1CCOCC1)c1ccccc1` displayed a melting point of 71 to 72 °C.
Compound `CCOC(=O)C(C)(C)Oc1ccc(OCCc2nc(-c3ccc(Br)cc3)oc2C)cc1` showed a melting point of 78 to 79 °C.
For `COC(=O)c1cc(OC)c(OC)c2c1C=CCO2`, the melting point is 88.5 to 90 °C.
